Values of other authors in patent US5380533A, “Gastroresistant pharmaceutical formulations for oral administration containing bile acids” (Alfa Wassermann S.p.A., priority 1991, dated 1995).
Converted amounts (≈) assume the structure as drawn.

How the values were obtained:
[1] = pH units
[2] = after having crossed unabsorbed and undissolved the stomach
[3] = intestinal pH below 8.4; intestinal bacterial flora
[4] = free bile acid

## C[C@H](CCC(=O)O)[C@H]1CC[C@H]2[C@@H]3[C@@H](O)C[C@@H]4C[C@H](O)CC[C@]4(C)[C@H]3CC[C@]12C [ursodeoxycholic acid]
[1]
  pH at which complete solubilization takes place: 8.47
[2]
  dissolution in the intestine: dissolve very slowly in the intestine
[3]
  fate of a portion at lower values of intestinal pH: is not absorbed and undergoes a biotransformation to lithocholic acid
[4]
  water solubility: 53 µM (≈ 20.8 µg/mL)
